# Assay: Gel formation (% +50 mesh gel bound)
# Format: physicochemical
# Settings: tap water at 1% dilution
smiles,measurement,value
"N.N.O=S(=O)(O)O [Ammonium Sulfate (AMS), Ammonium Sulfate]",% +50 mesh gel bound,0%

# Reference: patent US6423109B1, “Free flowing fertilizer composition with enhanced deposition/anti drift characteristics” (Adjuvants Unlimited Inc., priority 2000, dated 2002)
